Consider one molecule from ChEMBL document CHEMBL5321237 (Eur J Med Chem, 2023).

Data set [1] addresses T1, Macrophage colony-stimulating factor 1 receptor (Homo sapiens, UniProt P07333). Description: Inhibition of CSF1R (unknown origin) using FRET-peptide as substrate incubated in presence of ATP by FRET based Z-LYTE assay.
In data set [2] the target is Mast/stem cell growth factor receptor Kit (Homo sapiens) (UniProt P10721). Nature of the data set: Inhibition of autoinhibited wild type human KIT binding to streptavidin-coated magnetic beads immobilized biotinylated ligand at 500 nM incubated for 1 hr by qPCR analysis relative to control. A general note: In qPCR the cycle at which signal appears reflects the starting amount.
Mast/stem cell growth factor receptor Kit (Homo sapiens), sequence (P10721 whole entry): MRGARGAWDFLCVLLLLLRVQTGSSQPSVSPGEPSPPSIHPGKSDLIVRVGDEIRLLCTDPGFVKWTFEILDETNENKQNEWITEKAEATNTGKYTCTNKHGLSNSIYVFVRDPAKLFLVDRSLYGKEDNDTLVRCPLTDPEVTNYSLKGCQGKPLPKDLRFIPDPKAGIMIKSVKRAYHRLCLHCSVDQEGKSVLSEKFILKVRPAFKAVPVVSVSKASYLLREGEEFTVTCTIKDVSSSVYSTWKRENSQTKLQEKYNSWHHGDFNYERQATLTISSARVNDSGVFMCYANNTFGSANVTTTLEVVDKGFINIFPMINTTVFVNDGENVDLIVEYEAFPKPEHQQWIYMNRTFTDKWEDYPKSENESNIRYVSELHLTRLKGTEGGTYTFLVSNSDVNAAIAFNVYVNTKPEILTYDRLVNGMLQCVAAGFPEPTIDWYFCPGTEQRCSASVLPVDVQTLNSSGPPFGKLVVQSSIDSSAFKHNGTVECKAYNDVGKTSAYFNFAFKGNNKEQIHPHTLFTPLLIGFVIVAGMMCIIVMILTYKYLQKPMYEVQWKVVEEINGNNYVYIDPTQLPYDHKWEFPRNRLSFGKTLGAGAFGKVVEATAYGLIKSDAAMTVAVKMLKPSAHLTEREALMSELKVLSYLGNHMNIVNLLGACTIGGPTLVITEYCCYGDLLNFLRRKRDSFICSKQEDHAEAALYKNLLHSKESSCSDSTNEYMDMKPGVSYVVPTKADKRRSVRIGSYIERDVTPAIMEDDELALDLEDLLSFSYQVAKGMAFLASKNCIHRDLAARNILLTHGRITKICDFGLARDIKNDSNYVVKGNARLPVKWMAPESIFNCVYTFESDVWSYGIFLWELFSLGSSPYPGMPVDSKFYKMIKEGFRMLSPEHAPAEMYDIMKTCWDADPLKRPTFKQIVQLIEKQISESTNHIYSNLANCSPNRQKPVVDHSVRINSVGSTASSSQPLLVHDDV

The target in data set [3] is Receptor-type tyrosine-protein kinase FLT3 (Homo sapiens) (UniProt P36888). Description: Inhibition of autoinhibited human FLT3 binding to streptavidin-coated magnetic beads immobilized biotinylated ligand at 500 nM incubated for 1 hr by qPCR analysis relative to control.
The target of data set [4] is Platelet-derived growth factor receptor alpha (Homo sapiens) (UniProt P16234). Nature of the data set: Inhibition of human PDGFRalpha binding to streptavidin-coated magnetic beads immobilized biotinylated ligand at 500 nM incubated for 1 hr by qPCR analysis relative to control.
Platelet-derived growth factor receptor alpha (Homo sapiens), sequence (P16234 whole entry): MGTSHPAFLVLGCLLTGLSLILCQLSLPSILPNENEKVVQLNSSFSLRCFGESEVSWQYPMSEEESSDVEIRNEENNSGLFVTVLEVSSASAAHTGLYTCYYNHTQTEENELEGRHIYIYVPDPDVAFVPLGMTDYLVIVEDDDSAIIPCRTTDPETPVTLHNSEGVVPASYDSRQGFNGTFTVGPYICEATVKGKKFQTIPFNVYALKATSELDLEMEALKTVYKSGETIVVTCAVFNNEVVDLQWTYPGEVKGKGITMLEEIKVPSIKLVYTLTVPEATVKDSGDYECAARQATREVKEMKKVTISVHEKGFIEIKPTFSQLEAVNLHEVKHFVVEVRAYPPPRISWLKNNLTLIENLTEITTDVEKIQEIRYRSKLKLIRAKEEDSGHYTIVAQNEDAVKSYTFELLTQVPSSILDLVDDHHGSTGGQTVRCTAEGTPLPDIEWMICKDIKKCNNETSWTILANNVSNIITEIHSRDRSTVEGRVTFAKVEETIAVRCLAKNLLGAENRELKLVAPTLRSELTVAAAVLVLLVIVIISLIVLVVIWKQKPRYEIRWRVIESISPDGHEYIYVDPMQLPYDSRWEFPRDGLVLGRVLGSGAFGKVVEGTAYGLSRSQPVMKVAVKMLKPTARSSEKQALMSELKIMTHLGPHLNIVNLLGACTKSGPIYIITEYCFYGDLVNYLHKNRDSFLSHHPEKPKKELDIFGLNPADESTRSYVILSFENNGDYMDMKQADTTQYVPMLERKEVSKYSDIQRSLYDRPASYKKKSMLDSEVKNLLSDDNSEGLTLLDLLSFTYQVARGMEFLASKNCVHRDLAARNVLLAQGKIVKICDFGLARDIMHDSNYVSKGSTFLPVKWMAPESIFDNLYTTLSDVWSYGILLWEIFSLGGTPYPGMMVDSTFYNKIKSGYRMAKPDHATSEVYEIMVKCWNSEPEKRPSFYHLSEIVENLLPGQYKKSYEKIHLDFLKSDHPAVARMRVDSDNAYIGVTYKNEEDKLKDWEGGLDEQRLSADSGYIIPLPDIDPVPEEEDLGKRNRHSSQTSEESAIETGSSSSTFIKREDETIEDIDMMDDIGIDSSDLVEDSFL
Data set [5] deals with Platelet-derived growth factor receptor beta (Homo sapiens) (UniProt P09619). Nature of the data set: Inhibition of human PDGFRbeta binding to streptavidin-coated magnetic beads immobilized biotinylated ligand at 500 nM incubated for 1 hr by qPCR analysis relative to control.
Platelet-derived growth factor receptor beta (Homo sapiens), sequence (P09619 whole entry): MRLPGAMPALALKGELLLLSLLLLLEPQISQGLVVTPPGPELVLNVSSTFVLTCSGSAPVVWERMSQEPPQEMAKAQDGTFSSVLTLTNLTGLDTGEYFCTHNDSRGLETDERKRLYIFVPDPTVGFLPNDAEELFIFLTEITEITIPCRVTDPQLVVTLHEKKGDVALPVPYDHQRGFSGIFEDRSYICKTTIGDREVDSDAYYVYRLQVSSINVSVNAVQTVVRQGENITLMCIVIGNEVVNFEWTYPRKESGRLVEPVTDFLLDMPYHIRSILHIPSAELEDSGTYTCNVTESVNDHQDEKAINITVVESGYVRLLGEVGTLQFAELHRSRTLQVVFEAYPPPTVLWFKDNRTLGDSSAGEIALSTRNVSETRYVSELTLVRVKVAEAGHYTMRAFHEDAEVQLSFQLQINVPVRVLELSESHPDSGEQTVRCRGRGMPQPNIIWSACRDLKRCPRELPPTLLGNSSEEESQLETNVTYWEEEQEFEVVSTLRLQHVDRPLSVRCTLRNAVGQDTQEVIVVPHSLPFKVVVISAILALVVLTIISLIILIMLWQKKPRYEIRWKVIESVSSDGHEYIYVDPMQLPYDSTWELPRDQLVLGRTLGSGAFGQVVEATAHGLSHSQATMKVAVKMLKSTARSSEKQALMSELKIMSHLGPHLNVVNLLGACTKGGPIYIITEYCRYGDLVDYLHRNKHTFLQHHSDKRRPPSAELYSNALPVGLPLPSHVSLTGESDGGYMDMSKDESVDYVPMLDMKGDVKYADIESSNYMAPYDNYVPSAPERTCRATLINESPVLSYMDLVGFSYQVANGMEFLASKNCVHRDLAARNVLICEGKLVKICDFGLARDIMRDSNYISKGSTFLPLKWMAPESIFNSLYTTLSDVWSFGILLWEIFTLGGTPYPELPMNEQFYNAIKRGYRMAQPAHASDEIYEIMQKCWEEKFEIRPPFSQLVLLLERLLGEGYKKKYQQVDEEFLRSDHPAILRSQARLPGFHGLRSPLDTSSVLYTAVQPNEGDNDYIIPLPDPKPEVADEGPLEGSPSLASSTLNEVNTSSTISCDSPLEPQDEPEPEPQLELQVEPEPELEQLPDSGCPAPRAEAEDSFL
Data set [6] concerns T2, Receptor-type tyrosine-protein kinase FLT3 (Homo sapiens), P36888 [D835V].
T2 sequence (whole entry): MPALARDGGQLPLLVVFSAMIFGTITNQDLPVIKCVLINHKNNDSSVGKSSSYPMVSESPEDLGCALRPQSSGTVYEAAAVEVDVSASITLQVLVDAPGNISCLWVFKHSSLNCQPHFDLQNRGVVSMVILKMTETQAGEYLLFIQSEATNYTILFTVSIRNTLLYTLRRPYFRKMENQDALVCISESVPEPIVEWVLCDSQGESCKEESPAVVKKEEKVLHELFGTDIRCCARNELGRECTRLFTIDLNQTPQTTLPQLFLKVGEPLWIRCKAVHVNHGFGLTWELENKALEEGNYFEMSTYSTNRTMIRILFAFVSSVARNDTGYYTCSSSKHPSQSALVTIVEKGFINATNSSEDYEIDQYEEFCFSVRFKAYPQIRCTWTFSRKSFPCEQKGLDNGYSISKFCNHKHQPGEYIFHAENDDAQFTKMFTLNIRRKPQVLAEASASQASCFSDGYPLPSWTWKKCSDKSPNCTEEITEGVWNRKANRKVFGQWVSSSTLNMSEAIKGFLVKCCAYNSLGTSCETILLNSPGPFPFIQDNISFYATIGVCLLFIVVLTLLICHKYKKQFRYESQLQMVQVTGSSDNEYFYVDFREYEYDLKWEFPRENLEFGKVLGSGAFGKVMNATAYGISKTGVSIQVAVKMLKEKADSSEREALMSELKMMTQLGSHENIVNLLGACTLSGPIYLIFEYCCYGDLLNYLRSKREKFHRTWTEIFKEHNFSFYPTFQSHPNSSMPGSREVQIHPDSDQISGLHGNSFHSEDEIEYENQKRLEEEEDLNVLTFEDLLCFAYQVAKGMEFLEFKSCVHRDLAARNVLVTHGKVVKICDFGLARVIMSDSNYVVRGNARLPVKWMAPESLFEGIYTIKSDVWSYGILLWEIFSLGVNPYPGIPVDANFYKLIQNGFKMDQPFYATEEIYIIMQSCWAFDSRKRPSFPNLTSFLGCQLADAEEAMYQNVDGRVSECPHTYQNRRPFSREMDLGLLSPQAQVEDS
Description: Competitive binding affinity to human FLT3 D835V mutant at 500 nM incubated for 1 hr by qPCR analysis relative to control.

Data set [7] deals with Tyrosine-protein kinase ABL1 (Homo sapiens), P00519 [H396P]. Description: Competitive binding affinity to human ABL1 H396P mutant at 500 nM incubated for 1 hr by qPCR analysis relative to control.
Data set [8] concerns the target T3, Macrophage colony-stimulating factor 1 receptor (Mus musculus) (UniProt P09581).
T3 sequence (whole entry): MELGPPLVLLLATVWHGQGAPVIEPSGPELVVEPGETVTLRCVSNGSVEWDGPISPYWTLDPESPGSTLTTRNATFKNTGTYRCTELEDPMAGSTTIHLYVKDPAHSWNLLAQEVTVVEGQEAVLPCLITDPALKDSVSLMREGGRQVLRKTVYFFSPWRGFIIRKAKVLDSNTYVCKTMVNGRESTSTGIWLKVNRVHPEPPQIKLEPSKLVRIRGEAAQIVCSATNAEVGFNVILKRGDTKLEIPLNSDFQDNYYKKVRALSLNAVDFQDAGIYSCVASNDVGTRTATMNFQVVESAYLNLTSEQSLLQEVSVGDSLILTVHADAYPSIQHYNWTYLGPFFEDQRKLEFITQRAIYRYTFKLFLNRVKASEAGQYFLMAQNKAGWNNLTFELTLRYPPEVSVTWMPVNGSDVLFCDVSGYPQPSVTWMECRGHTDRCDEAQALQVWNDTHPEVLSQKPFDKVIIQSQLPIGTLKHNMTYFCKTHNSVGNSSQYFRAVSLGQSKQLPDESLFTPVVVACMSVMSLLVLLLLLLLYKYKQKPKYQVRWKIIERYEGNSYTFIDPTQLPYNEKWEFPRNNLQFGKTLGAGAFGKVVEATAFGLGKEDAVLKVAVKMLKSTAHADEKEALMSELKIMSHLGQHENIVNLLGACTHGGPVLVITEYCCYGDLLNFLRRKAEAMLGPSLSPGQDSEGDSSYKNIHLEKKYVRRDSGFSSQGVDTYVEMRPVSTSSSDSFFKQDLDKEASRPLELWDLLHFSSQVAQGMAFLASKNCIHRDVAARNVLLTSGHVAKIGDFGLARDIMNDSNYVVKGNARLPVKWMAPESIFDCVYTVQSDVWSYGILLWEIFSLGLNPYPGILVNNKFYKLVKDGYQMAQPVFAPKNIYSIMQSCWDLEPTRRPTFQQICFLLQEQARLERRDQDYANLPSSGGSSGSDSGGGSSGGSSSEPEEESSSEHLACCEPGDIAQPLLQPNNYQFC
Description: Inhibition of CSF1-induced CSF1R signalling in mouse BMDM cells assessed as reduction in ERK1/2 phosphorylation by measuring fold change preincubated for 30 mins followed by CSF1 addition and measured after 10 mins relative to pexidartinib. The format is cell-based. As to conditions: time 40.0 min.

Data set [9] in a line: Metabolic stability in mouse liver microsomes assessed as intrinsic clearance at 3 uM measured upto 50 mins by LC-MS analysis. The format is ADME, Microsome. Background: Liver microsomes are a subcellular fraction often used to study metabolism.
Data set [10] is described as follows: Metabolic stability in human liver microsomes assessed as intrinsic clearance at 3 uM measured upto 50 mins by LC-MS analysis. The format is ADME, Microsome.
Data set [11] deals with T1, Macrophage colony-stimulating factor 1 receptor. Description: Binding affinity to autoinhibited form of CSF1R (unknown origin) assessed as dissociation constant incubated for 1 hr by qPCR based Hill equation analysis.

T1 sequence (P07333 whole entry): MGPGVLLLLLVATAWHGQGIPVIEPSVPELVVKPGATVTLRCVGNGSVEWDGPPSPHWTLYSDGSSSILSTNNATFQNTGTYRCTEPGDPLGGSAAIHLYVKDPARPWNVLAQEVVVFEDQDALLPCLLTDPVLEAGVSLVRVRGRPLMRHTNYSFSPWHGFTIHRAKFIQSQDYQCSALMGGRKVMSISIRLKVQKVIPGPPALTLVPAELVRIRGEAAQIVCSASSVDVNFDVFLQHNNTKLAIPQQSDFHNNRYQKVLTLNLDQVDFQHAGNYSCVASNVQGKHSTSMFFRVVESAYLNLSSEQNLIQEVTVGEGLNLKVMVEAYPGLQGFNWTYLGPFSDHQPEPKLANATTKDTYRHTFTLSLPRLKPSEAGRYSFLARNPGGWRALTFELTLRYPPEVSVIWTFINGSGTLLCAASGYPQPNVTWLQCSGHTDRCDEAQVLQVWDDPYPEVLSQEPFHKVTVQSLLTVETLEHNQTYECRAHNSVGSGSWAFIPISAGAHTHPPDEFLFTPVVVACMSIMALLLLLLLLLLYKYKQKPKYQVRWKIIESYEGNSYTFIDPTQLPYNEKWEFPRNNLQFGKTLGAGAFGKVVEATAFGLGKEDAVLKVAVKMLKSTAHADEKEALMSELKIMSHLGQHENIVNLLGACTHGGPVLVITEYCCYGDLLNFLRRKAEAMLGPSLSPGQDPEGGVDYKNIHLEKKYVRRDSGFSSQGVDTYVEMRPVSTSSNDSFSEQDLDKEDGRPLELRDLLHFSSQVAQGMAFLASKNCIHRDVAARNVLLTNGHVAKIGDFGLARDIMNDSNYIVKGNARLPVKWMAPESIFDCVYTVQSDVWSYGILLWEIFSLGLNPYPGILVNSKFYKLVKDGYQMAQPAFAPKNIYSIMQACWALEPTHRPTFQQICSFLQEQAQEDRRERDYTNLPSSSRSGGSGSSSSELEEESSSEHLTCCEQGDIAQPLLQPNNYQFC

With `CN(CC1CCCC1)c1ncnc2[nH]c(-c3ccc(CO)cc3)nc12`, in [1], the IC50 turned out to be 0.5 nM. The inhibition in data set [2], in data set [3], in data set [4] and in data set [5] was 12% in each case. For the same molecule, the Activity stood at 92% in data set [6] and 96% in data set [7]. Further, the fold change (FC) in [8] was found to be 0.4. In addition, the CLint in data set [9] came out at 243 µL/min/mg; in data set [10], 36.4 µL/min/mg. Moreover, the Kd in [11] was 17 nM.

A word on the IC50: it is the point on the concentration scale where inhibition reaches its midpoint. As usually defined, the inhibition is how much of the control response was suppressed. For orientation: Kd means the free concentration of one partner at which half of the binding sites on the other are occupied at equilibrium, for simple one-to-one binding.
